Data as given in US10300065B2, “Method of treating or prevention of atherothrombotic events in patients with history of myocardial infarction” (ASTRAZENECA AB, priority 2015, dated 2019).
Like-named read-outs stand apart in the source and are kept apart here.

Experiments:
[1] = room temperature; crystalline powder; cited from earlier work
clinical = assay type: in vivo; conditions: for concentration at 2 h: human, plasma, oral, post dose (2 h)
Method: The pharmacokinetics (PK) and pharmacodynamics of the 60 mg bid dose had not previously been studied. […] 180 patients who had received >4 weeks of study medication had blood sampling in the morning pre-maintenance dose and again 2 h post-dose. All patients were receiving aspirin. […] Well-known VerifyNow® P2Y12 assay and light transmittance aggregometry (LTA; ADP 20 uM) were performed. Groups were compared using Kruskal-Wallis test with significance attached to P<0.01 to allow for multiple group comparisons.

[2] = tested on: patients with a history of myocardial infarction
Source text: Any erroneously treated patients (e.g., randomized to ticagrelor but actually given placebo) were to be accounted for in the actual treatment group.
The primary efficacy endpoint was the composite of cardiovascular death, myocardial infarction, or stroke. Secondary endpoints were cardiovascular death and all-cause mortality. The analysis of secondary endpoints proceeded in a hierarchical fashion, starting with cardiovascular death and then death from any cause. Additional endpoints listed below were evaluated on an exploratory basis. Exploratory efficacy endpoints included substituting coronary heart disease death for cardiovascular death, and the additional end points of urgent coronary revascularization, unstable angina, and transient ischemic attack. The primary safety endpoint was TIMI major bleeding. Other safety endpoints included intracranial hemorrhage (ICH) and fatal bleeding. […] A central clinical events committee whose members were unaware of the treatment assignments adjudicated all efficacy endpoints and bleeding episodes.
Safety analyses included all randomized patients who received at least one dose of study drug and for whom post-dose data were available. Patients were censored at the first of the pre-specified Common Study End Date, withdrawal of consent, or the last clinical event assessment. Safety was analyzed as on-treatment including all events occurring after first dose and within 7 days after the last dose of study drug. […] Event rates are expressed as Kaplan-Meier estimates of cumulative incidence.

[3] = 60 mg bid (N = 6958), % of patients
[4] = 60 mg bid (N = 6958), listed as ticagrelor

## CCCSc1nc(N[C@@H]2C[C@H]2c2ccc(F)c(F)c2)c2nnn([C@@H]3C[C@H](OCCO)[C@@H](O)[C@H]3O)c2n1 [Ticagrelor, (1S,2S,3R,5S)-3-[7-{[(1R,2S)-2-(3,4-difluorophenyl)cyclopropyl]amino}-5-(propylthio)-3H-[1,2,3]-triazolo[4,5-d]pyrimidin-3-yl]-5-(2-hydroxyethoxy)cyclopentane-1,2-diol]
[1]
  aqueous solubility: approximately 10 μg/mL
clinical; 60 mg vs 90 mg
  plasma ticagrelor levels lower with 60 mg vs 90 mg: approximately ⅓
clinical; 60 mg bid
  concentration at 2 h: 448 ng/mL
clinical; 90 mg bid
  concentration at 2 h: 717 ng/mL
[2]; 60 mg bid
  Dyspnea, 3-year event rate: 15.8%
  Fatal bleeding: ARI (%): −0.01%
  Hypotension: 0.66 events/100 pt years
  ICH: ARI (%): 0.14%
  ICH: NNH: 714
  TIMI major bleeding: ARI (%): 1.24%
  TIMI major bleeding: NNH: 81
  frequency of death (including bleeding): 4.2%
  frequency of death, bleeding events excluded: 3.9%
  median duration of resolved dyspnea adverse events: 31 days
  patients with serum creatinine concentration increased by >50%: approximately 4%
  syncope, patients reporting: 1.2%
[2]; 60 mg bid (N = 6958)
  Adverse event leading to death: (%): (2.1) %
  Adverse event leading to death: n: 149
  Adverse event leading to discontinuation of study drug: (%): (16.1) %
  Adverse event leading to discontinuation of study drug: n: 1117
  Any adverse event: (%): (75.7) %
  Any adverse event: n: 5268
  Any serious adverse event: (%): (21.5) %
  Any serious adverse event: n: 1499
  Bleeding leading to study drug discontinuation: 3-year Kaplan-Meier estimate: (6.2) %
  Bleeding leading to study drug discontinuation: n: 355
  Bleeding requiring transfusion: 3-year Kaplan-Meier estimate: (2.10) %
  Bleeding requiring transfusion: n: 105
  Bradyarrhythmia adverse event: (%): (1.7) %
  Bradyarrhythmia adverse event: n: 121
  Dyspnea AE: (%): (14.17) %
  Dyspnea AE: n: 986
  Dyspnea SAE: (%): (0.3) %
  Dyspnea SAE: n: 22
  Dyspnea leading to study drug discontinuation: (%): (4.3) %
  Dyspnea leading to study drug discontinuation: n: 296
  Fatal Bleeding: 3-year Kaplan-Meier estimate: (0.25) %
  Fatal Bleeding: n: 11
  Fatal bleeding or non-fatal intracranial hemorrhage: 3-year Kaplan-Meier estimate: (0.63) %
  Fatal bleeding or non-fatal intracranial hemorrhage: n: 32
  Fatal bleeding: (%) patients with event: (0.2) %
  Fatal bleeding: Events/100 pt yrs: 0.08 Events/100 pt yrs
  Gout adverse event: (%): (1.4) %
  Gout adverse event: n: 97
  Intracranial Hemorrhage: 3-year Kaplan-Meier estimate: (0.61) %
  Intracranial Hemorrhage: n: 28
  Intracranial hemorrhage: (%) patients with event: (0.4) %
  Intracranial hemorrhage: Events/100 pt yrs: 0.19 Events/100 pt yrs
  Renal adverse event: (%): (2.5) %
  Renal adverse event: n: 173
  Serious adverse event leading to discontinuation of study drug: (%): (3.7) %
  Serious adverse event leading to discontinuation of study drug: n: 255
  TIMI Major bleeding: 3-year Kaplan-Meier estimate: (2.30) %
  TIMI Major bleeding: n: 115
  TIMI Major or Minor: (%) patients with event: (2.4) %
  TIMI Major or Minor: Events/100 pt yrs: 1.15 Events/100 pt yrs
  TIMI Major or Minor: n patients with event: 168
  TIMI Major: (%) patients with event: (1.7) %
  TIMI Major: Events/100 pt yrs: 0.78 Events/100 pt yrs
  TIMI Minor bleeding: 3-year Kaplan-Meier estimate: (1.18) %
  TIMI Minor bleeding: n: 55
[2]; [3]
  Non-hemorrhagic adverse reaction: Diarrhea: 3.3%
  Non-hemorrhagic adverse reaction: Dizziness: 4.5%
  Non-hemorrhagic adverse reaction: Dyspnea: 14.2%
[2]; [4]
  Bleeding leading to study drug discontinuation: 3-year Kaplan-Meier estimate: 6.2%
  Bleeding requiring transfusion: 3-year Kaplan-Meier estimate: 2.1%
  Dyspnea leading to study drug discontinuation: (%): 4.3%
  Fatal Bleeding: 3-year Kaplan-Meier estimate: 0.3%
  Intracranial Hemorrhage: 3-year Kaplan-Meier estimate: 0.6%
  TIMI Major bleeding: 3-year Kaplan-Meier estimate: 2.30%
[2]; 60 mg bid vs Placebo
  Bleeding leading to study drug discontinuation: HR: 4.31
  Bleeding requiring transfusion: HR: 3.08
  Dyspnea AE: HR: 2.82
  Dyspnea SAE: HR: 2.91
  Dyspnea leading to study drug discontinuation: HR: 6.35
  Fatal Bleeding: HR: 1.00
  Fatal bleeding or non-fatal intracranial hemorrhage: HR: 1.22
  Intracranial Hemorrhage: HR: 1.33
  TIMI Major bleeding: HR: 2.32
  TIMI Minor bleeding: HR: 3.31
